According to ChEMBL document CHEMBL1150620, “Two new minor polybrominated dibenzo-p-dioxins from the marine sponge Dysidea dendyi” (J Nat Prod, 2002):

Assay: Inhibition of cell division of Strongylocentrotus intermedius fertilized eggs
Format: functional, Egg

Compound | IC50
COc1c(Br)cc(Br)cc1Oc1ccc(Br)cc1Br | 145 µM
COc1c(Br)c(Br)cc2c1Oc1cc(Br)cc(Br)c1O2 [SPONGIADIOXIN B METHYL ETHER] | 94 µM
COc1cc(Br)cc(Br)c1Oc1cc(Br)cc(Br)c1O | 4.7 µM
COc1cc(Br)cc2c1Oc1cc(Br)cc(Br)c1O2 [SPONGIADIOXIN C METHYL ETHER] | 166 µM
Oc1cc(Br)c(Br)c2c1Oc1cc(Br)cc(Br)c1O2 [SPONGIADIOXIN A] | 4.8 µM
COc1cc(Br)cc(Br)c1Oc1cc(Br)cc(Br)c1OC | 137 µM
COc1cc(Br)c(Br)c2c1Oc1cc(Br)cc(Br)c1O2 [SPONGIADIOXIN A METHYL ETHER] | 141 µM
Oc1c(Br)c(Br)cc2c1Oc1cc(Br)cc(Br)c1O2 [SPONGIADIOXIN B] | 1.1 µM
Oc1cc(Br)cc2c1Oc1cc(Br)cc(Br)c1O2 [SPONGIADIOXIN C] | 5.7 µM
